Results published in PubChem BioAssay (NCI).
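Dose response: 5 concentrations. Exposure: 48 h. Format: 96-well plates. Endpoint: linear interpolation; highest concentration if not reached. GI50 = concentration required for 50% inhibition of growth. TGI is the concentration that stops growth completely.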

Columns and labels:
Assay in all cases: NCI-60 cell line screen, 48 h
T-47D breast = test system: T-47D breast
MDA-MB-435 = test system: MDA-MB-435
NCI-H460 lung = test system: NCI-H460 lung
A549 NSCLC = test system: A549 NSCLC
HCC-2998 colon = test system: HCC-2998 colon
MALME-3M melanoma = test system: MALME-3M melanoma
UACC-257 melanoma = test system: UACC-257 melanoma
PC-3 prostate = test system: PC-3 prostate
NCI-H522 lung = test system: NCI-H522 lung
HOP-62 NSCLC = test system: HOP-62 NSCLC
OVCAR-5 ovarian = test system: OVCAR-5 ovarian
IGROV1 ovarian = test system: IGROV1 ovarian
SK-MEL-28 melanoma = test system: SK-MEL-28 melanoma
SK-MEL-5 melanoma = test system: SK-MEL-5 melanoma
SNB-19 CNS = test system: SNB-19 CNS
M14 melanoma = test system: M14 melanoma
HT29 colon = test system: HT29 colon
MOLT-4 leukemia = test system: MOLT-4 leukemia
SW-620 colon = test system: SW-620 colon
MCF7 breast = test system: MCF7 breast
CAKI-1 renal = test system: CAKI-1 renal
UO-31 renal = test system: UO-31 renal
DU-145 prostate = test system: DU-145 prostate
OVCAR-8 ovarian = test system: OVCAR-8 ovarian
SN12C renal = test system: SN12C renal
SF-268 CNS = test system: SF-268 CNS
A498 renal = test system: A498 renal
HCT-15 colon = test system: HCT-15 colon
SK-OV-3 ovarian = test system: SK-OV-3 ovarian
786-0 renal = test system: 786-0 renal
NCI-H23 lung = test system: NCI-H23 lung
TK-10 renal = test system: TK-10 renal
MDA-MB-231 breast = test system: MDA-MB-231 breast
NCI/ADR-RES ovarian = test system: NCI/ADR-RES ovarian
K-562 leukemia = test system: K-562 leukemia
COLO 205 colon = test system: COLO 205 colon
OVCAR-3 ovarian = test system: OVCAR-3 ovarian
SK-MEL-2 melanoma = test system: SK-MEL-2 melanoma
NCI-H226 lung = test system: NCI-H226 lung
U251 CNS = test system: U251 CNS
SF-295 CNS = test system: SF-295 CNS
BT-549 breast = test system: BT-549 breast
SNB-75 CNS = test system: SNB-75 CNS
HS 578T breast = test system: HS 578T breast
ACHN renal = test system: ACHN renal
LOX IMVI melanoma = test system: LOX IMVI melanoma
KM12 colon = test system: KM12 colon
RPMI-8226 leukemia = test system: RPMI-8226 leukemia
SR leukemia = test system: SR leukemia
OVCAR-4 ovarian = test system: OVCAR-4 ovarian
HL-60(TB) leukemia = test system: HL-60(TB) leukemia
UACC-62 melanoma = test system: UACC-62 melanoma
RXF 393 renal = test system: RXF 393 renal
CCRF-CEM leukemia = test system: CCRF-CEM leukemia
HCT-116 colon = test system: HCT-116 colon
SF-539 CNS = test system: SF-539 CNS

CC(C)=CC(=O)OC1C(CO)OC(Oc2cc(O)c3c(=O)cc(-c4ccc(O)c(O)c4)oc3c2)C(OC2OC(C)C(O)C(O)C2O)C1O (configuration not stated)
GI50 (T-47D breast): > 100 µM
TGI (T-47D breast): > 100 µM
GI50 (MDA-MB-435): > 100 µM
TGI (MDA-MB-435): > 100 µM
GI50 (NCI-H460 lung): > 100 µM
TGI (NCI-H460 lung): > 100 µM
GI50 (A549 NSCLC): > 100 µM
TGI (A549 NSCLC): > 100 µM
GI50 (HCC-2998 colon): > 100 µM
TGI (HCC-2998 colon): > 100 µM
GI50 (MALME-3M melanoma): > 100 µM
TGI (MALME-3M melanoma): > 100 µM
GI50 (UACC-257 melanoma): > 100 µM
TGI (UACC-257 melanoma): > 100 µM
GI50 (PC-3 prostate): > 100 µM
TGI (PC-3 prostate): > 100 µM
GI50 (NCI-H522 lung): > 100 µM
TGI (NCI-H522 lung): > 100 µM
GI50 (HOP-62 NSCLC): > 100 µM
TGI (HOP-62 NSCLC): > 100 µM
GI50 (OVCAR-5 ovarian): > 100 µM
TGI (OVCAR-5 ovarian): > 100 µM
GI50 (IGROV1 ovarian): > 100 µM
TGI (IGROV1 ovarian): > 100 µM
GI50 (SK-MEL-28 melanoma): > 100 µM
TGI (SK-MEL-28 melanoma): > 100 µM
GI50 (SK-MEL-5 melanoma): > 100 µM
TGI (SK-MEL-5 melanoma): > 100 µM
GI50 (SNB-19 CNS): > 100 µM
TGI (SNB-19 CNS): > 100 µM
GI50 (M14 melanoma): > 100 µM
TGI (M14 melanoma): > 100 µM
GI50 (HT29 colon): > 100 µM
TGI (HT29 colon): > 100 µM
GI50 (MOLT-4 leukemia): > 100 µM
TGI (MOLT-4 leukemia): > 100 µM
GI50 (SW-620 colon): > 100 µM
TGI (SW-620 colon): > 100 µM
GI50 (MCF7 breast): > 100 µM
TGI (MCF7 breast): > 100 µM
GI50 (CAKI-1 renal): > 100 µM
TGI (CAKI-1 renal): > 100 µM
GI50 (UO-31 renal): > 100 µM
TGI (UO-31 renal): > 100 µM
GI50 (DU-145 prostate): > 100 µM
TGI (DU-145 prostate): > 100 µM
GI50 (OVCAR-8 ovarian): > 100 µM
TGI (OVCAR-8 ovarian): > 100 µM
GI50 (SN12C renal): > 100 µM
TGI (SN12C renal): > 100 µM
GI50 (SF-268 CNS): > 100 µM
TGI (SF-268 CNS): > 100 µM
GI50 (A498 renal): > 100 µM
TGI (A498 renal): > 100 µM
GI50 (HCT-15 colon): > 100 µM
TGI (HCT-15 colon): > 100 µM
GI50 (SK-OV-3 ovarian): > 100 µM
TGI (SK-OV-3 ovarian): > 100 µM
GI50 (786-0 renal): > 100 µM
TGI (786-0 renal): > 100 µM
GI50 (NCI-H23 lung): > 100 µM
TGI (NCI-H23 lung): > 100 µM
GI50 (TK-10 renal): > 100 µM
TGI (TK-10 renal): > 100 µM
GI50 (MDA-MB-231 breast): > 100 µM
TGI (MDA-MB-231 breast): > 100 µM
GI50 (NCI/ADR-RES ovarian): > 100 µM
TGI (NCI/ADR-RES ovarian): > 100 µM
GI50 (K-562 leukemia): > 100 µM
TGI (K-562 leukemia): > 100 µM
GI50 (COLO 205 colon): > 100 µM
TGI (COLO 205 colon): > 100 µM
GI50 (OVCAR-3 ovarian): > 100 µM
TGI (OVCAR-3 ovarian): > 100 µM
GI50 (SK-MEL-2 melanoma): > 100 µM
TGI (SK-MEL-2 melanoma): > 100 µM
GI50 (NCI-H226 lung): > 100 µM
TGI (NCI-H226 lung): > 100 µM
GI50 (U251 CNS): > 100 µM
TGI (U251 CNS): > 100 µM
GI50 (SF-295 CNS): > 100 µM
TGI (SF-295 CNS): > 100 µM
GI50 (BT-549 breast): > 100 µM
TGI (BT-549 breast): > 100 µM
GI50 (SNB-75 CNS): > 100 µM
TGI (SNB-75 CNS): > 100 µM
GI50 (HS 578T breast): > 100 µM
TGI (HS 578T breast): > 100 µM
GI50 (ACHN renal): > 100 µM
TGI (ACHN renal): > 100 µM
GI50 (LOX IMVI melanoma): > 100 µM
TGI (LOX IMVI melanoma): > 100 µM
GI50 (KM12 colon): > 100 µM
TGI (KM12 colon): > 100 µM
GI50 (RPMI-8226 leukemia): 85.6 µM
TGI (RPMI-8226 leukemia): > 100 µM
GI50 (SR leukemia): 50 µM
TGI (SR leukemia): 98.8 µM
GI50 (OVCAR-4 ovarian): > 100 µM
TGI (OVCAR-4 ovarian): > 100 µM
GI50 (HL-60(TB) leukemia): > 100 µM
TGI (HL-60(TB) leukemia): > 100 µM
GI50 (UACC-62 melanoma): > 100 µM
TGI (UACC-62 melanoma): > 100 µM
GI50 (RXF 393 renal): > 100 µM
TGI (RXF 393 renal): > 100 µM
GI50 (CCRF-CEM leukemia): > 100 µM
TGI (CCRF-CEM leukemia): > 100 µM
GI50 (HCT-116 colon): > 100 µM
TGI (HCT-116 colon): > 100 µM
GI50 (SF-539 CNS): > 100 µM
TGI (SF-539 CNS): > 100 µM
